Where “and” joins values, the source holds several entries; their conditions need not be identical. Identical values can stand only once. Entries after “also recorded” stand apart in the source; their conditions may differ.
Legend:
[1] = tested on: MB49 cells
[2] = tested on: MB49 cells; settings: mouse, in vivo
[3] = tested on: HSCs (LKS+ cells) and immune cells in BM and bladder; settings: mouse, in vivo
[4] = tested on: MB49 cells; settings: mouse, in vivo; remark: listed apart in the source
[5] = tested on: B16-F10 cells; settings: mouse, in vivo
[6] = mouse, in vivo
[7] = tested on: bladder cancer; settings: human, in vivo; cited from earlier work

CC(=O)N[C@@H](CS)C(=O)O [NAC, N-Acetyl Cysteine]
effect of ROS scavenger on cytotoxic activity of trained neutrophils [1]: abolished the cytotoxic activity

Bacillus Calmette-Guérin [BCG]
increase in survival [2]: 50%
survival [2]: 50-70% and 50%
tumor growth / tumoral volume (histopathology, MRI, tumoral weight) [2]: substantial reduction in tumoral volume; also recorded: reduced tumor growth; also recorded: significant tumor reduction
enhanced survival ([2]; iv): 40-50%
LKS+ population in BM, frequency and absolute number [3]: significant expansion
frequency and absolute number of monocytes in BM [3]: increased
frequency and absolute number of neutrophils in BM [3]: increased
frequency and absolute number of neutrophils in bladder [3]: increased
frequency and absolute numbers of dendritic cells in BM [3]: increased
frequency and absolute numbers of dendritic cells in bladder [3]: increased
frequency and absolute numbers of monocytes in bladder [3]: increased
frequency and total cell numbers of NK cells in bladder [3]: increased
frequency and total cell numbers of macrophages in bladder [3]: increased
frequency of lymphocytes / adaptive immune cells (CD4+ and CD8+ T cells) in bladder [3]: increased
proportions of long-term HSCs (LT-HSCs) in BM [3]: reduction
proportions of multipotent progenitors (MPPs) in BM [3]: increases
proportions of short-term HSCs (ST-HSCs) in BM [3]: increases
tumor growth [4]: significantly reduced tumor growth
BM-LKS+ population [5]: significant expansion
BCG dissemination to organs [6]: reached the spleen, draining lymph nodes, and BM
BCG elimination in urine [6]: eliminated in the urine
efficacy of BCG treatment in bladder cancer [7]: 30-50%
intolerance due to adverse effects [7]: about 20%
patients experiencing relapse [7]: up to 40%
patients unresponsive to BCG immunotherapy [7]: up to 50%

β-Glucan
increase in survival [2]: 50% and 40%
survival [2]: 40%
survival after neutrophil depletion [2]: 10%
tumor growth / tumoral volume (histopathology, MRI, tumoral weight) [2]: suppressing tumoral growth; also recorded: reduced tumor growth; also recorded: significant reduction in tumor volume
enhanced survival compared to PBS-control group ([2]; ip): 45%
frequency and absolute number of neutrophils in bladder [3]: significantly increased
frequency of lymphocytes / adaptive immune cells (CD4+ and CD8+ T cells) in bladder [3]: remained unchanged
frequency and total cell number of neutrophils in BM ([3]; ip): increased
tumor growth [4]: developed tumors

— patent US20250352629A1, “ADJUVANT FOR BACILLUS CALMETTE-GUERIN CANCER IMMUNOTHERAPY” (The Royal Institution for the Advancement of …, priority 2024, published 2025)
